Structures can show the parent of a compound that is named as a salt.
target: indoleamine 2,3-dioxygenase (IDO1) (Homo sapiens, UniProt P14902); test: HeLa IDOi assay (kynurenine by mass spectrometry); type: cell-based; set-up: human epithelial HeLa cells (CCL-2; host or cells: HeLa cells stimulated with human IFN-γ; settings: IFN-γ stimulated HeLa cells, 2 days, kynurenine detected by mass spectrometry; read-out: HeLa pIC50 (converted)
Experimental: Brief descriptions of the cellular assays are provided following the table.
Compounds of the present invention were tested via high-throughput cellular assays utilizing detection of kynurenine via mass spectrometry and cytotoxicity as end-points. For the mass spectrometry and cytotoxicity assays, human epithelial HeLa cells (CCL-2; ATCC®, Manassas, Va.) were stimulated with human interferon-γ (IFN-γ) (Sigma-Aldrich Corporation, St. Louis, Mo.) to induce the expression of indoleamine 2,3-dioxygenase (IDO1). Compounds with IDO1 inhibitory properties decreased the amount of kynurenine produced by the cells via the tryptophan catabolic pathway. Cellular toxicity due to the effect of compound treatment was measured using CellTiter-Glo® reagent (CTG) (Promega Corporation, Madison, Wis.), which is based on luminescent detection of ATP, an indicator of metabolically active cells.
In preparation for the assays, test compounds were serially diluted 3-fold in DMSO from a typical top concentration of 5 mM and plated at 0.5 μL in 384-well, polystyrene, clear bottom, tissue culture treated plates with lids (Greiner Bio-One, Kremsmünster, Austria) to generate 11-point dose response curves. Low control wells (0% kynurenine or 100% cytotoxicity) contained either 0.5 μL of DMSO in the presence of unstimulated (−IFN-γ) HeLa cells for the mass spectrometry assay or 0.5 μL of DMSO in the absence of cells for the cytotoxicity assay, and high control wells (100% kynurenine or 0% cytotoxicity) contained 0.5 μL of DMSO in the presence of stimulated (+IFN-γ) HeLa cells for both the mass spectrometry and cytotoxicity assays.
Frozen stocks of HeLa cells were washed and recovered in DMEM high glucose medium with HEPES (Thermo Fisher Scientific, Inc., Waltham, Mass.) supplemented with 10% v/v certified fetal bovine serum (FBS) (Thermo Fisher Scientific, Inc., Waltham, Mass.), and 1× penicillin-streptomycin antibiotic solution (Thermo Fisher Scientific, Inc., Waltham, Mass.). The cells were diluted to 100,000 cells/mL in the supplemented DMEM medium. 50 μL of either the cell suspension, for the mass spectrometry assay, or medium alone, for the cytotoxicity assay, were added to the low control wells, on the previously prepared 384-well compound plates, resulting in 5,000 cells/well or 0 cells/well respectively. IFN-γ was added to the remaining cell suspension at a final concentration of 10 nM, and 50 μL of the stimulated cells were added to all remaining wells on the 384-well compound plates. The plates, with lids, were then placed in a 37° C., 5% CO2 humidified incubator for 2 days.
Following incubation, the 384-well plates were removed from the incubator and allowed to equilibrate to room temperature for 30 minutes. For the cytotoxicity assay, CellTiter-Glo® was prepared according to the manufacturer's instructions, and 10 μL were added to each plate well. After a twenty minute incubation at room temperature, luminescence was read on an EnVision® Multilabel Reader (PerkinElmer Inc., Waltham, Mass.). For the mass spectrometry assay, 10 μL of supernatant from each well of the compound-treated plates were added to 40 μL of acetonitrile, containing 10 μM of an internal standard for normalization, in 384-well, polypropylene, V-bottom plates (Greiner Bio-One, Kremsmünster, Austria) to extract the organic analytes. Following centrifugation at 2000 rpm for 10 minutes, 10 μL from each well of the acetonitrile extraction plates were added to 90 μL of sterile, distilled H2O in 384-well, polypropylene, V-bottom plates for analysis of kynurenine and the internal standard on the RapidFire 300 (Agilent Technologies, Santa Clara, Calif.) and 4000 QTRAP MS (SCIEX, Framingham, Mass.). MS data were integrated using Agilent Technologies' RapidFire Integrator software, and data were normalized for analysis as a ratio of kynurenine to the internal standard. […]

indoleamine 2,3-dioxygenase (IDO1), sequence (P14902 whole entry): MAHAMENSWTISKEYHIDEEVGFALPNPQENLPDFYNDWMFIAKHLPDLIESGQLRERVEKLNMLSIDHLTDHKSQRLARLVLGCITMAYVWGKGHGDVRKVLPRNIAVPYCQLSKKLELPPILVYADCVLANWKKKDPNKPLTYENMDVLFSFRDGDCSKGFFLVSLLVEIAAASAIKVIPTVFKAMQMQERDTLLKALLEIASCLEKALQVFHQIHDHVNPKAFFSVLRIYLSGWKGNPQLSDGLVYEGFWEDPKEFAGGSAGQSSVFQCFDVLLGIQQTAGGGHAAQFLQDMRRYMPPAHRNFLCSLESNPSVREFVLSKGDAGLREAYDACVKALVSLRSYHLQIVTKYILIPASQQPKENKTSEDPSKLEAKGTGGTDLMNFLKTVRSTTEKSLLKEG

| Compound | IC50 [nM] |
| --- | --- |
| CC(C)(C)Sc1ccc(-c2ccccc2-c2nn[nH]n2)cc1NC(=O)Cc1cnccn1 [Example 5, N-(4-(tert-butylthio)-2′-(2H-tetrazol-5-yl)-[1,1′-biphenyl]-3-yl)-2-(pyrazin-2-yl)acetamide] | > 10000 |
| CC(C)(C)Sc1ccc(-c2ccccc2-c2nn[nH]n2)cc1NC(=O)Cc1ccncc1 [Example 6, N-(4-(tert-butylthio)-2′-(2H-tetrazol-5-yl)-[1,1′-biphenyl]-3-yl)-2-(pyridin-4-yl)acetamide] | 6310 |
| CC(C)(C)Sc1ccc(-c2ccccc2-c2nn[nH]n2)cc1NC(=O)Cc1ccc(C#N)cc1 [Example 7, N-(4-(tert-butylthio)-2′-(2H-tetrazol-5-yl)-[1,1′-biphenyl]-3-yl)-2-(4-cyanophenyl)acetamide] | 5010 |
| Cc1cc(CC(=O)Nc2cc(-c3ccccc3-c3nn[nH]n3)ccc2SC(C)(C)C)on1 [Example 8, N-(4-(tert-butylthio)-2′-(2H-tetrazol-5-yl)-[1,1′-biphenyl]-3-yl)-2-(3-methylisoxazol-5-yl)acetamide] | 6310 |
| CC(C)(C)Sc1ccc(-c2ccccc2-c2nn[nH]n2)cc1NC(=O)Cc1cncnc1 [Example 9, N-(4-(tert-butylthio)-2′-(2H-tetrazol-5-yl)-[1,1′-biphenyl]-3-yl)-2-(pyrimidin-5-yl)acetamide] | > 10000 |
| COCCCSc1ccc(-c2ccccc2-c2nn[nH]n2)cc1NC(=O)Cc1ccc(C)cc1 [Example 11, N-(4-((3-methoxypropyl)thio)-2′-(2H-tetrazol-5-yl)-[1,1′-biphenyl]-3-yl)-2-(p-tolyl)acetamide] | 1000 |
| Cc1ccc(CC(=O)Nc2cc(-c3ccccc3-c3nn[nH]n3)ccc2SC2CCOCC2)cc1 [Example 12, N-(4-((tetrahydro-2H-pyran-4-yl)thio)-2′-(2H-tetrazol-5-yl)-[1,1′-biphenyl]-3-yl)-2-(p-tolyl)acetamide] | 5010 |
| CC(C)(C)Sc1ccc(-c2ccccc2-c2nn[nH]n2)cc1NC(=O)CC1CC1 [Example 17, N-(4-(tert-butylthio)-2′-(2H-tetrazol-5-yl)-[1,1′-biphenyl]-3-yl)-2-cyclopropylacetamide] | 2510 |
| CC(C)(C)Sc1ccc(-c2ccccc2-c2nn[nH]n2)cc1NC(=O)CC1CCCCC1 [Example 18, N-(4-(tert-butylthio)-2′-(2H-tetrazol-5-yl)-[1,1′-biphenyl]-3-yl)-2-cyclohexylacetamide] | 3980 |
| Cc1ccc(CC(=O)Nc2cc(-c3ccccc3-c3nn[nH]n3)ccc2SC(C)(C)C)cc1F [Example 21, N-(4-(tert-butylthio)-2′-(2H-tetrazol-5-yl)-[1,1′-biphenyl]-3-yl)-2-(3-fluoro-4-methylphenyl)acetamide] | 20 |
| COc1ccc(CC(=O)Nc2cc(-c3ccccc3-c3nn[nH]n3)ccc2SC(C)(C)C)cc1 [Example 22, N-(4-(tert-butylthio)-2′-(2H-tetrazol-5-yl)-[1,1′-biphenyl]-3-yl)-2-(4-methoxyphenyl)acetamide] | 31.6 |
| COc1ccc(CC(=O)Nc2cc(-c3ccccc3-c3nn[nH]n3)ccc2SC(C)(C)C)cc1F [Example 23, N-(4-(tert-butylthio)-2′-(2H-tetrazol-5-yl)-[1,1′-biphenyl]-3-yl)-2-(3-fluoro-4-methoxyphenyl)acetamide] | 63.1 |
| CC(C)(C)Sc1ccc(-c2ccccc2-c2nn[nH]n2)cc1NC(=O)Cc1ccc(F)cc1 [Example 24, N-(4-(tert-butylthio)-2′-(2H-tetrazol-5-yl)-[1,1′-biphenyl]-3-yl)-2-(4-fluorophenyl)acetamide] | 398 |
| CC(C)(C)Sc1ccc(-c2ccccc2-c2nn[nH]n2)cc1NC(=O)Cc1ccccc1 [Example 25, N-(4-(tert-butylthio)-2′-(2H-tetrazol-5-yl)-[1,1′-biphenyl]-3-yl)-2-phenylacetamide] | 398 |
| Cc1ccc(CC(=O)Nc2cc(-c3ccccc3-c3nn[nH]n3)ccc2SC(C)(C)C)nc1 [Example 26, N-(4-(tert-butylthio)-2′-(2H-tetrazol-5-yl)-[1,1′-biphenyl]-3-yl)-2-(5-methylpyridin-2-yl)acetamide] | 794 |
| CC(C)(C)OC(=O)N1CCC(CC(=O)Nc2cc(-c3ccccc3-c3nn[nH]n3)ccc2SC(C)(C)C)CC1 [Example 29] | 5010 |
| CC(C)(C)Sc1ccc(-c2ccccc2-c2nn[nH]n2)cc1NC(=O)CC1CCNCC1 [Example 30, N-(4-(tert-butylthio)-2′-(2H-tetrazol-5-yl)-[1,1′-biphenyl]-3-yl)-2-(piperidin-4-yl)acetamide Hydrochloride] | > 10000 |
| CC(=O)N1CCC(CC(=O)Nc2cc(-c3ccccc3-c3nn[nH]n3)ccc2SC(C)(C)C)CC1 [Example 31, 2-(1-Acetylpiperidin-4-yl)-N-(4-(tert-butylthio)-2′-(2H-tetrazol-5-yl)-[1,1′-biphenyl]-3-yl)acetamide] | > 10000 |
| CC(C)(C)Sc1ccc(-c2ccccc2-c2nn[nH]n2)cc1NC(=O)CC1CCN(S(C)(=O)=O)CC1 [Example 32, N-(4-(tert-butylthio)-2′-(2H-tetrazol-5-yl)-[1,1′-biphenyl]-3-yl)-2-(1-(methylsulfonyl)piperidin-4-yl)acetamide] | > 10000 |
| COCC(=O)Nc1cc(-c2ccccc2-c2nn[nH]n2)ccc1SC(C)(C)C [Example 33, N-(4-(tert-butylthio)-2′-(2H-tetrazol-5-yl)-[1,1′-biphenyl]-3-yl)-2-methoxyacetamide] | 7940 |
| CC(C)(C)Sc1ccc(-c2ccccc2-c2nn[nH]n2)cc1NC(=O)Cc1ccc2c(c1)OCO2 [Example 38, 2-(Benzo[d][1,3]dioxol-5-yl)-N-(4-(tert-butylthio)-2′-(2H-tetrazol-5-yl)-[1,1′-biphenyl]-3-yl)acetamide] | 100 |
| CC(C)(C)Sc1ccc(-c2ccccc2-c2nn[nH]n2)cc1Nc1nc(Cl)ns1 [Example 42, N-(4-(tert-butylthio)-2′-(2H-tetrazol-5-yl)-[1,1′-biphenyl]-3-yl)-3-chloro-1,2,4-thiadiazol-5-amine] | 126 |
| CC(CC(=O)O)c1ccc(SC(C)(C)C)c(Nc2nc(Cl)ns2)c1 (stereo not drawn) [Example 45, 3-(4-(tert-Butylthio)-3-((3-chloro-1,2,4-thiadiazol-5-yl)amino)phenyl)butanoic Acid] | 2510 |
| Cc1ccc(CC(=O)Nc2cc(-c3ccccc3-c3nnn(COP(=O)(OC(C)(C)C)OC(C)(C)C)n3)ccc2SC(C)(C)C)cc1 [Example 49, di-tert-butyl ((5-(4′-(tert-butylthio)-3′-(2-(p-tolyl)acetamido)-[1,1′-biphenyl]-2-yl)-2H-tetrazol-2-yl)methyl) phosphate] | 1000 |
| Cc1ccc(CC(=O)Nc2cc(-c3ccccc3-c3nnnn3COP(=O)(OC(C)(C)C)OC(C)(C)C)ccc2SC(C)(C)C)cc1 [Example 50, di-tert-butyl ((5-(4′-(tert-butylthio)-3′-(2-(p-tolyl)acetamido)-[1,1′-biphenyl]-2-yl)-1H-tetrazol-1-yl)methyl) phosphate] | 126 |
| CC(=O)OCn1nnc(-c2ccccc2-c2ccc(SC(C)(C)C)c(NC(=O)Cc3ccc(C)cc3)c2)n1 [Example 57, (5-(4′-(tert-Butylthio)-3′-(2-(p-tolyl)acetamido)-[1,1′-biphenyl]-2-yl)-2H-tetrazol-2-yl)methyl Acetate] | 25.1 |
| CC(=O)OCn1nnnc1-c1ccccc1-c1ccc(SC(C)(C)C)c(NC(=O)Cc2ccc(C)cc2)c1 [Example 58, (5-(4′-(tert-butylthio)-3′-(2-(p-tolyl)acetamido)-[1,1′-biphenyl]-2-yl)-1H-tetrazol-1-yl)methyl Acetate] | 39.8 |

— patent US10538495B2, “Modulators of indoleamine 2,3-dioxygenase” (GLAXOSMITHKLINE INTELLECTUAL PROPERTY DEVELOPMENT LIMITED, priority 2016, dated 2020)
